# According to publication PMC8507746, “The FHP01 DDX3X Helicase Inhibitor Exerts Potent Anti-Tumor Activity In Vivo in Breast Cancer Pre-Clinical Models” (Cancers, 2021):
# Columns and labels:
# PBMCs = assay: Cell viability assay in peripheral blood mononuclear cells; format: cell-based; details: up to a concentration of 50 μM, 72 h
# Protocol: Two days before the assay, phytohemagglutinin-A (PHA) 2 µg/mL was added to the PBMC culture. Cells were seeded at 13 × 10^4 cells/well in triplicate and maintained at 37 °C in 5% CO2. After 24 h, cells were treated with 10 μM and 50 μM of indicated drugs. After 72 h incubation, cells were washed in PBS and harvested. Cell number of each sample was determined with Z2 Coulter Counter (Beckman Coulter), in triplicate. Data about cell viability were plotted in GraphPad Prism 8.0 software 100% viability corresponding to vehicle (DMSO) treated PBMCs.
# [1] = biological target: T1, HA-DDX3X immunoprecipitated from 293T cells (Homo sapiens, UniProt O00571); assay: Qualitative in vitro helicase assay with immunoprecipitated HA-DDX3X (dsRNA unwinding); format: biochemical; details: human protein immunoprecipitated from 293T cells
# T1 construct: host or cells: 293T cells, transient transfection, anti-HA immunoprecipitation; protein used on beads
# T1 sequence (O00571 whole entry): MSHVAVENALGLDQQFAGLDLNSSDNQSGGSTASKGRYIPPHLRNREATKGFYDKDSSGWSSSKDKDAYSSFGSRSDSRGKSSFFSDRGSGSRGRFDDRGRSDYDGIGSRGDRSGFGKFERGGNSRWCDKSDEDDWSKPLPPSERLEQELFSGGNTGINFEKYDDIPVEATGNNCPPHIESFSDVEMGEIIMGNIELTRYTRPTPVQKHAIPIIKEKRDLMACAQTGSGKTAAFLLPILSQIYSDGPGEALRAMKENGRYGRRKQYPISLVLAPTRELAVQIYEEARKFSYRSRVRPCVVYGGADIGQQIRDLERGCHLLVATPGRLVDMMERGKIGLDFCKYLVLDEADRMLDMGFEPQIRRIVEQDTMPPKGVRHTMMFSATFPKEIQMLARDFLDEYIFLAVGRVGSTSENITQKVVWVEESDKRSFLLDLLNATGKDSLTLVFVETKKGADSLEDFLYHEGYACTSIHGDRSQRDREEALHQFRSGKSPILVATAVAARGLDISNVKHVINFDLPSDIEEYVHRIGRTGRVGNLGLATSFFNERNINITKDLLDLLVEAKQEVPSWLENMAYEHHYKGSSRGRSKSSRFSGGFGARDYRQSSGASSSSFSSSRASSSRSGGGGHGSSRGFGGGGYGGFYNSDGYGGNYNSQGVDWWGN
# Protocol: 293T cells (3 × 10^5) were seeded in 6-well plates and, after 24 h, transfected with 1 μg of HA-DDX3 (Addgene plasmid # 44975) by using the Lipofectamine reagent (Thermo Fischer Scientific, Waltham, MA, USA). After 36 h, cells were lysed in NP-40 Lysis Buffer (20 mM HEPES pH = 7.5, 10 mM EGTA pH = 8, 40 mM β-glycerolphosphate, 1% NP40, 2.5 mM MgCl2, 2 mM Orthovanadate, 2 mM NaF, 1 mM DTT, and 1X protease inhibitors mixture) and 2 mg of proteins were immunoprecipitated with anti-HA antibodies (Covance, Princeton, NJ, USA) in NP40 lysis buffer. Immunoprecipitated samples were washed twice with lysis buffer and one time in helicase reaction buffer (50 mM Tris HCl pH = 8, 1 mM DTT, 5% glycerol, 10 mM MgCl2). Beads were then resuspended in 100 μL in helicase reaction buffer. […]
# Ultimately, reactions were performed in a final volume 100 μL of helicase reaction buffer plus ATP 4 mM, 30 μL of beads used to immunoprecipitate HA-DDX3X, 20 nM of 18/36mer dsRNA, and 100 nM of competitor at 37 °C for 1 h and stopped by adding 10 μL of a stopping solution (EDTA 60 mM pH = 8, 40% glycerol, 0,6% SDS, 1% Orange G). […] Quantification of the ssRNA was performed by the ImageJ software (National Institutes of Health, Bethesda, MD, USA).
# DDX3X = tested on: DDX3X; design: method as in earlier work; details: in vitro enzymatic activity; read-out: IC50, DDX3X helicase activity; cited from earlier work
# [2] = Pharmacokinetic profiling, plasma concentration in mice; format: in vivo, Swiss Albino mice
# Protocol: These studies were performed at the GVKBioscience Pvt. LTD Contract Research and Development Organization (CRDO). Animals were housed in cages with clean bedding. Adult Swiss Albino male mice (weight = 20–35 g) were maintained and monitored for good health in accordance with GVKBioscience Pvt. LTD Test Facility SOPs and at the discretion of the laboratory animal veterinarian. Certified rodent diet was provided, and water was available ad libitum. A periodic analysis of the water was performed, and the results have been archived at the Test Facility. Environmental controls for the animal room were set to maintain a temperature of 22 to 25 °C, humidity of 40–70% relative humidity, and a 12-h light/12-h dark cycle. Animals have been dosed i.v. with 1 mg/kg of FHP01 i.p. with 10 mg/kg of compound or p.o. through gastric gavage needle with 50 mg/kg of compound. Next, mice were anesthetized using gaseous anesthesia and blood samples were collected at each time point, from 3 mice of respective group. After collection of blood samples at each time point, the blood samples were stored on ice, prior to centrifugation. Blood samples were centrifuged at 1540 rcf (5000 rpm), 4 °C for 10 min to separate plasma. Plasma was transferred to pre-labeled micro-centrifuge tubes and promptly frozen at −80 °C until analysis. Samples have been identified by test item, group, animal number, and collection time point. A fit-for-purpose bioanalytical method was developed for analyzing the plasma samples. One set of nine standards have been run before the sample batch and used for plotting the calibration curve. Quality control (QC) samples have been prepared at a minimum of three concentrations, i.e., LQC (not more than 5 times to that of lowest standard concentration), HQC (not less than 75% of the highest standard concentration), and MQC (between the low and high concentration). Minimum of 6 QC samples (three concentrations in duplicate). One Set of QC (LQC, MQC, and HQC) samples have been analyzed before and after the sample batch.
compound,measurement,setting,value
CCCCc1cn(-c2ccc(NC(=O)Nc3ccccc3C(F)(F)F)cc2)nn1 [FHP01],effect on viability of normal PBMC,PBMCs,no effect
same,"inhibition of DDX3X helicase activity, qualitative",[1],activity comparable to RK33
same,IC50,DDX3X,300 nM
same,plasma concentration profile,[2]; 1 mg/kg i.v.,rapidly decreasing plasma concentration
same,plasma concentration profile,[2]; 10 mg/kg i.p.,high plasma concentration
same,plasma concentration profile,[2]; 50 mg/kg p.o.,high plasma concentration
